# Test results from PubChem BioAssay AID1324 (NMMLSC, 2008).
# The source made the active and inactive calls. No rule for the calls is given here.
# Molecular target: glutathione S-transferase (GST-GSH binding)
# Assay: GST–glutathione interaction disruption – biochemical, multiplex beads, flow cytometry, HPSMTB buffer, profiling panel (AID 1324);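 also: glutathione beads loaded with GST-green fluorescent protein and no fluorescent Bim peptide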
# Settings: multiplex bead flow cytometry, MCF
row,Compound,EC50
1,COc1cc2[nH]c(=S)nc(NCC3CCCO3)c2cc1OC (stereo unspecified),inactive
2,Cc1nc2ncccn2c1-c1csc(Nc2ccc(O)cc2)n1,690 nM
3,COc1ccccc1Nc1nc(-c2c(C)nc3ncccn23)cs1,inactive
4,CN(/N=C/C=C/c1ccccc1)C1=NS(=O)(=O)c2ccccc21,2520 nM
5,O=S1(=O)N=C(N(CCO)/N=C/c2ccncc2)c2ccccc21,inactive
6,CCOC(=O)c1c2c3c(c(Cl)ccc3[nH]c1=O)C(=O)c1ccccc1-2,5400 nM
7,COC(=O)c1sc2nc[nH]c(=O)c2c1C,inactive
8,O=[N+]([O-])c1ccc(N/N=C/c2ccc(O)c(O)c2O)c(S(=O)(=O)N2CCOCC2)c1,inactive
9,COc1ccc(OC)c(-n2c(=O)c3ccccc3c3ccccc3c2=O)c1,inactive

# Same assay, conditions: multiplex bead flow cytometry, MCF, hits give high values, concentration not given here
row,Compound,percent span inhibition
1,CCOC(=O)C1=C(CP(=O)(c2ccccc2)c2ccccc2)NC(=O)NC1c1ccc(OC)cc1 (stereo unspecified),inactive
2,Cc1ccc(-c2cc(C(=O)Nc3cccnc3)c3ccccc3n2)o1,inactive
3,CCN1CCN(c2cc(C)c3cc(NC(=S)N4CCN(c5ccc(F)cc5)CC4)ccc3n2)CC1,inactive
4,CC(C)c1ccc(/C=N/NC(=O)c2ccccc2Cl)cc1,inactive
5,Cc1cc(C)c2nc3nc(C)c(C)cc3c(N)c2c1,inactive
6,OC(COc1ccc2cc(Br)ccc2c1)CN1CCOCC1 (stereo unspecified),inactive
7,CC1(C)CC(=O)C(C=NCCN2CCN(CCc3ccccc3)CC2)=C(O)C1,inactive
8,Cc1cccc(C(=O)N=c2c(C#N)cc3c(=O)n4cccc(C)c4nc3n2Cc2ccco2)c1,inactive
9,O=c1c2c(n3nnnc3n1Cc1ccccc1)-c1ccccc1CC21CCCC1,inactive
10,CC1CCN(C2(O)C(=O)Nc3ccc(Br)cc32)CC1 (stereo unspecified),inactive
11,COc1ccc(S(=O)(=O)NCCOc2cccc3cccnc23)cc1OC,inactive
12,CCOc1ccc(C2=Nn3c(nnc3-c3ccco3)SC2)cc1,inactive
13,COc1ccc2oc(-c3ccccc3)c(C(=O)N3CCOCC3)c2c1,inactive
14,CC(C)CNC(=O)c1cccc(NC(=O)c2ccc(Cl)c([N+](=O)[O-])c2)c1,inactive
15,CCOC(=O)c1cc2c(=O)n3cccc(C)c3nc2n(Cc2ccco2)c1=NC(=O)c1ccccc1,inactive
16,O=C1NC(=S)S/C1=C/c1ccc(N2CCOCC2)o1,inactive
17,CNc1ccc(Br)cc(C(=O)/C=C/c2cccc(OC)c2OC)c1=O,inactive
18,CCN(CC)S(=O)(=O)c1cccc(C(=O)N/N=C/c2ccc(O)c(O)c2O)c1,inactive
19,O=C(Nc1ccccc1)Nc1ccc2ncoc2c1,inactive
20,CCOc1cc(/C=N/NC(=O)c2cccs2)cc([N+](=O)[O-])c1O,inactive
21,CCOc1ccc(C(=O)Nc2nnc(NC(=S)Nc3ccccc3)s2)cc1,inactive
22,O=C(CSc1ccc(-c2ccccc2)nn1)NCc1ccco1,inactive
23,Cn1c(=O)c2cc(S(=O)(=O)Nc3cc(C(=O)O)cc(C(=O)O)c3)ccc2n(C)c1=O,inactive

row,Compound,percent span inhibition
1,CCOC(=O)CCCNC(=O)c1cncc(O)c1,inactive
2,O=C(COC(=O)c1ccccn1)NC1CCCCC1,inactive
3,Cc1ccc(-c2cc(C(=O)N3CCN(c4ncccn4)CC3)c3cc(Br)ccc3n2)o1,inactive
4,CCOc1ccccc1NC(=O)CSc1ccc2nnc(-c3cccnc3)n2n1,inactive
5,O=C(Cc1ccccc1)N/N=C/c1cccn1-c1ccc([N+](=O)[O-])cc1,inactive
6,CCOC(=O)N1CCC(c2cc(=O)n(-c3ccccc3)[nH]2)CC1,inactive
7,CCCCNC(=O)c1ccc2nc(-c3ccco3)c(-c3ccco3)nc2c1,inactive
8,Brc1ccc2ncnc(Nc3ccc(N4CCOCC4)cc3)c2c1,inactive
9,O=C1NC(=O)C(=Cc2ccc(-c3cc(Cl)ccc3[N+](=O)[O-])o2)C(=O)N1,inactive
10,CCC(/C=C1\Sc2ccc(OC)cc2N1CCO)=C\c1sc2ccc(OC)cc2[n+]1CCO,inactive
11,Cc1ccc(NC(=O)c2cc(S(=O)(=O)NCCC3=CCCCC3)ccc2F)cc1F,inactive
12,NC(=O)CSc1nnc(Cn2cnc3ccccc32)o1,inactive
13,c1csc(C2=Nn3c(nnc3-c3ccncc3)SC2)c1,inactive
14,O=C(CSc1nnc(-c2cccs2)n1Cc1ccco1)c1ccc2c(c1)OCO2,inactive
15,COc1ccccc1C1=Nc2cccc3cccc(c23)N1,inactive
16,CC(=O)Nc1ccc(NC2=C(Cl)C(=O)c3ccccc3C2=O)cc1,inactive
17,O=C(/C=C\c1ccc(-c2ccccc2)o1)c1ccccc1,inactive
18,CCCCCCn1nc(C(=O)Nc2nc3c(s2)CCCC3)c2ccccc2c1=O,inactive
19,COc1ccccc1NC(=O)CSc1nnc(-c2ccco2)n1Cc1ccco1,inactive
20,Cc1ccc(/C=C/C(=O)c2ccccc(=O)c2O)c(C)c1,inactive
21,O=C(NC1=C(Nc2ccc(F)cc2)C(=O)c2ccccc2C1=O)c1ccc(Cl)cc1,inactive
22,Cc1ccc(-c2cc(-c3ccc(C)o3)nc(N)c2C#N)cc1,inactive
23,Cc1ccc(-c2nc(N3CCOCC3)s[n+]2-c2ccccc2)cc1,inactive

row,Compound,percent span inhibition
1,O=C(Oc1ccc(-c2cnc3ccccc3n2)cc1)c1cccc([N+](=O)[O-])c1,inactive
2,Cc1ccc(-c2cc(C(=O)Nc3nccs3)c3ccccc3n2)o1,inactive
3,COc1ccc(CC(=O)Nc2ccccc2Oc2ccccc2)cc1,inactive
4,Cc1ccc(Nc2nc(C)cs2)cc1,inactive
5,CCOc1c(Cl)cc(CNc2ccc(N3CCCC3)cc2)cc1OC,inactive
6,CC1=NN(c2ccc(C)cc2)C(=O)/C1=C\c1ccc(Br)s1,inactive
7,C/C(=N\NC(=O)Cn1nc(C)c([N+](=O)[O-])c1C)c1ccc(O)cc1,inactive
8,Oc1ccc(C=NCC2COc3ccccc3O2)cc1 (stereo unspecified),inactive
9,CC1Nc2ccccc2C(=O)N1NS(C)(=O)=O (stereo unspecified),inactive
10,CCOC(=O)CSC1=NC(=O)/C(=C/c2ccc(Br)cc2)S1,inactive
11,CNC(=S)N(Cc1cccs1)Cc1cc2ccc(OC)cc2[nH]c1=O,inactive
12,Cc1ccc(-c2nnc(Cc3ccc(Cl)cc3)o2)cc1,inactive
13,COc1ccc(NC(=O)c2c(F)cccc2F)cc1S(=O)(=O)Nc1ccc(Br)cc1,inactive
14,CCOC(=O)/C(=C\c1cccc(O)c1)c1nc2sc(C)c(C)c2c(=O)[nH]1,inactive
15,Nc1ccc(N2CCCCCC2)cc1,inactive
16,CC(C)NS(=O)(=O)c1ccc(OCC(=O)Nc2ccc(F)cc2)cc1,inactive
17,CCOc1ccc2nc(SCC(=O)N3c4ccccc4Sc4ccccc43)c(C#N)cc2c1,inactive
18,CCOCCOc1nc2c(c(=O)n(C)c(=O)n2C)n1CCc1ccccc1,inactive
19,COc1cc(NC(=S)NC(=O)c2cc(C)cc(C)c2)ccc1NC(=O)c1cccs1,inactive
20,CCOC(=O)c1c(NC(=O)c2ccccc2N(C)S(=O)(=O)c2ccccc2)sc2c1CCCC2,inactive
21,O=C(c1cnccn1)N1CCN(c2ccccc2F)CC1,inactive
22,O=C(/C=C/c1ccccc1Cl)c1ccccc(=O)c1O,inactive
23,COc1ccc(C(=O)Nc2ccc(C(=O)OCC(=O)c3cccc4ccccc34)cc2)cc1,inactive

row,Compound,percent span inhibition
1,CN1C(=O)/C(=C/c2ccc(-c3ccccc3[N+](=O)[O-])o2)SC1=Nc1ccc(Cl)c(C(=O)O)c1,inactive
2,COc1ccc(NC(=O)Cc2c(F)cccc2Cl)c(OC)c1,inactive
3,COc1ccc(C2CC(=O)C3=C(C2)Nc2ccccc2NC3c2coc3ccccc3c2=O)cc1OC (stereo unspecified),inactive
4,O=C(Nc1n[nH]c(C(F)(F)F)n1)C1CC1,inactive
5,Cc1ccc(-n2c(CSc3nc(C)cc(C)n3)nnc2SCC(=O)NCc2ccco2)cc1,inactive
6,O=C(CNC(=O)c1ccco1)NCC(=O)OCc1ccccc1Br,inactive
7,Cc1cc(Cl)ccc1N=c1ssnc1Cl,inactive
8,CN(C(=O)NC1CCCCC1)c1ccccc1,inactive
9,Cc1ccc(Nc2nc(-c3ccccc3)c(CC(=O)O)s2)cc1,inactive
10,COC(=O)CCC(=O)Nc1sc(C)c(C)c1C(N)=O,inactive
11,CNc1ccc(Br)cc(C(=O)/C=C/c2ccc(OC)cc2)c1=O,inactive
12,COc1ccc(-c2csc(NC(=O)/C(N=Nc3ccccc3)=C(\C)O)n2)cc1,inactive
13,COCCN=c1scc(-c2cccs2)n1/N=C/c1ccc(O)c(O)c1O,inactive
14,CCOCCCn1c(N)c(C(=O)Nc2sc3c(c2C(=O)OC)CCCC3)c2nc3ccccc3nc21,inactive
15,CCn1cc(C=C2C(=O)c3ccccc3C2=O)c2ccccc21,inactive
16,CN(C)c1ccc(C(=O)/C=C/c2ccc(Br)cc2)cc1,inactive
17,CC(C)CN1C(=O)/C(=C/c2ccco2)NC1=S,inactive
18,CC(C)COC(=O)/C(C#N)=C/c1cn(Cc2ccccc2)c2ccccc12,inactive
19,COc1ccc(NC(=O)c2cccs2)cc1,inactive
20,Cc1ccc(/C=C2/NC(=O)N(Cc3ccc(Br)cc3)C2=O)o1,inactive
21,O=C(O)c1cccc(NC2=C(Cl)C(=O)c3ccccc3C2=O)c1,inactive
22,Clc1nc(NCc2cccnc2)nc(N2CCOCC2)n1,inactive
23,COc1ccc(NC(=O)c2ccc3c(c2)NC(=O)CS3)cc1S(=O)(=O)Nc1ccc(Br)cc1,inactive
